How the values were obtained:
barnyardgrass [1] = assay: Test Example 1: foliage treatment, upland pot test; format: in vivo, Echinochloa crus-galli L.; settings: active ingredient 500 g/ha, observed 18th to 23rd day, 0 = non-treated, 100 = complete kill
Text: (§1) Upland field soil was put into a 1/170,000 ha pot, and seed of various plants were sown. Then, when the plants reached predetermined leaf stages ((1) barnyardgrass: 1.3 to 2.8 leaf stages, (2) crabgrass: 1.0 to 2.8 leaf stages, (3) green foxtail: 1.3 to 2.6 leaf stages, (4) redroot pigweed: 0.1 to 1.2 leaf stages, (5) prickly sida: 0.1 to 1.2 leaf stages, (6) velvetleaf: 0.1 to 1.2 leaf stages, (7) tall morningglory: 0.1 to 1.5 leaf stages, (8) rice: 1.2 to 2.6 leaf stages, (9) wheat: 1.3 to 2.4 leaf stages, (10) corn, 2.1 to 3.2 leaf stages, (11) soybean: 0.1 to 0.4 leaf stage), a wettable powder or emulsifiable concentrate having the compound of the present invention formulated in accordance with a usual formulation method, was weighed so that the active ingredient would be a predetermined amount, and diluted with water in an amount of 500 L/ha. To the diluted solution, 0.1% (v/v) of agricultural spreader was added. The herbicide thus adjusted was applied by a small size sprayer for foliage treatment. On the 18th to 23rd days after the application of the herbicide, the growth of the respective plants was visually observed, and the herbicidal effects were evaluated by the growth controlling degrees (%) ranging from 0 (equivalent to the non-treated plot) to 100 (complete kill), whereby the results shown in Table 3, were obtained.

crabgrass [2] = assay: Test Example 1: foliage treatment, upland pot test; format: in vivo, Digitaria sanguinalis L.; settings: active ingredient 500 g/ha, observed 18th to 23rd day, 0 = non-treated, 100 = complete kill
Text: as §1

green foxtail [3] = assay: Test Example 1: foliage treatment, upland pot test; format: in vivo, Setaria viridis L.; settings: active ingredient 500 g/ha, observed 18th to 23rd day, 0 = non-treated, 100 = complete kill
Text: as §1

redroot pigweed [4] = assay: Test Example 1: foliage treatment, upland pot test; format: in vivo, Amaranthus retroflexus L.; settings: active ingredient 500 g/ha, observed 18th to 23rd day, 0 = non-treated, 100 = complete kill
Text: as §1

prickly sida [5] = assay: Test Example 1: foliage treatment, upland pot test; format: in vivo, Sida spinosa L.; settings: active ingredient 500 g/ha, observed 18th to 23rd day, 0 = non-treated, 100 = complete kill
Text: as §1

velvetleaf [6] = assay: Test Example 1: foliage treatment, upland pot test; format: in vivo, Abutilon theophrasti MEDIC.; settings: active ingredient 500 g/ha, observed 18th to 23rd day, 0 = non-treated, 100 = complete kill
Text: as §1

rice [7] = assay: Test Example 1: foliage treatment, upland pot test; format: in vivo, Oryza sativa L.; settings: crop, active ingredient 500 g/ha, observed 18th to 23rd day, 0 = non-treated, 100 = complete kill
Text: as §1

corn [8] = assay: Test Example 1: foliage treatment, upland pot test; format: in vivo, Zea mays L.; settings: crop, active ingredient 500 g/ha, observed 18th to 23rd day, 0 = non-treated, 100 = complete kill
Text: as §1

soybean [9] = assay: Test Example 1: foliage treatment, upland pot test; format: in vivo, Glycine max Merr.; settings: crop, active ingredient 500 g/ha, observed 18th to 23rd day, 0 = non-treated, 100 = complete kill
Text: as §1

barnyardgrass [10] = assay: Test Example 3: paddy pot test, application under submerged conditions; format: in vivo, Echinochloa crus-galli L.; settings: submerged application at 0.5 leaf stage, visually observed 14 days after application, 0 = non-treated, 100 = complete kill
Method in brief: (§2)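 Seeds were sown in flooded paddy soil (0.5–1 cm water), wapato tubers were planted 1–2 days later, and water was then held at 3–4 cm. Diluted wettable powder or emulsifiable concentrate was pipetted into the water at the 0.5 leaf or primary leaf stage. Growth control was visually scored at 14 days (0–100%).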

japanese bulrush = assay: as above; format: in vivo, Scirpus juncoides; settings: submerged application at 0.5 leaf stage, visually observed 14 days after application, 0 = non-treated, 100 = complete kill
Method in brief: as §2

japanese ribbon wapato = assay: as above; format: in vivo, Sagittaria pygniaea; settings: submerged application at primary leaf stage, visually observed 14 days after application, 0 = non-treated, 100 = complete kill
Method in brief: as §2

rice (var. Nihonbare) = assay: Test Example 3: paddy pot test, transplanted rice; format: in vivo, Oryza sativa L.; settings: applied 4th day after transplantation, visually observed 21st day after application, 0 = non-treated, 100 = complete kill
Method in brief: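 Rice (2-leaf stage) was transplanted 3 cm deep into puddled, leveled paddy soil under 3–4 cm flooding. On day 4 after transplanting, diluted wettable powder or emulsifiable concentrate was pipetted onto the water at a predetermined active-ingredient dose. Growth control (0 = untreated, 100 = complete kill) was scored visually 21 days later.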

barnyardgrass [11] = assay: Test Example 2: soil surface treatment, upland pot test; format: in vivo, Echinochloa crus-galli L.; settings: active ingredient 500 g/ha, observed 20th to 28th day
Method in brief: (§3)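 Soil surface treated 1 day post-sowing. Formulation: WP or EC, predetermined a.i., diluted to 1,500 L/ha. Pot size 1/170,000 ha, upland soil. Readout: visual % control, 0 = non-treated, 100 = dead, days 20–28.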

crabgrass [12] = assay: as above; format: in vivo, Digitaria sanguinalis L.; settings: active ingredient 500 g/ha, observed 20th to 28th day
Method in brief: as §3

green foxtail [13] = assay: as above; format: in vivo, Setaria viridis L.; settings: active ingredient 500 g/ha, observed 20th to 28th day
Method in brief: as §3

redroot pigweed [14] = assay: as above; format: in vivo, Amaranthus retroflexus L.; settings: active ingredient 500 g/ha, observed 20th to 28th day
Method in brief: as §3

prickly sida [15] = assay: as above; format: in vivo, Sida spinosa L.; settings: active ingredient 500 g/ha, observed 20th to 28th day
Method in brief: as §3

velvetleaf [16] = assay: as above; format: in vivo, Abutilon theophrasti MEDIC.; settings: active ingredient 500 g/ha, observed 20th to 28th day
Method in brief: as §3

rice [17] = assay: as above; format: in vivo, Oryza sativa L.; settings: active ingredient 500 g/ha, observed 20th to 28th day
Method in brief: as §3

corn [18] = assay: as above; format: in vivo, Zea mays L.; settings: active ingredient 500 g/ha, observed 20th to 28th day
Method in brief: as §3

soybean [19] = assay: as above; format: in vivo, Glycine max Merr.; settings: active ingredient 500 g/ha, observed 20th to 28th day
Method in brief: as §3

Structure (SMILES)	Growth controlling degree (%) Barnyardgrass (barnyardgrass [1])	Growth controlling degree (%) Crabgrass (crabgrass [2])	Growth controlling degree (%) Green foxtail (green foxtail [3])	Growth controlling degree (%) Redroot pigweed (redroot pigweed [4])	Growth controlling degree (%) Prickly sida (prickly sida [5])	Growth controlling degree (%) Velvetleaf (velvetleaf [6])	Growth controlling degree (%) Rice (rice [7])	Growth controlling degree (%) Corn (corn [8])	Growth controlling degree (%) Soybean (soybean [9])	Growth controlling degree (%) Barnyardgrass (barnyardgrass [10]; active ingredient 250 g/ha)	Growth controlling degree (%) Japanese bulrush (japanese bulrush; active ingredient 250 g/ha)	Growth controlling degree (%) Japanese ribbon wapato (japanese ribbon wapato; active ingredient 250 g/ha)	Growth controlling degree (%) Rice (rice (var. Nihonbare); active ingredient 250 g/ha)	Growth controlling degree (%) Barnyardgrass (barnyardgrass [11])	Growth controlling degree (%) Crabgrass (crabgrass [12])	Growth controlling degree (%) Green foxtail (green foxtail [13])	Growth controlling degree (%) Velvetleaf (velvetleaf [16])	Growth controlling degree (%) Corn (corn [18])	Growth controlling degree (%) Soyabean (soybean [19])	also measured
CC(C)C(c1cnccc1C(F)(F)F)N(C)C(=O)Cc1ccc(C#N)cc1 (racemic) [I-114]	80%	80%	70%	60%	80%	70%	30%	60%	70%	100%	95%	95%	30%	–	–	–	–	–	–	–
CC(C)C(c1cnccc1Cl)N(C)C(=O)Cc1cccc(C(F)(F)F)c1 (stereo not shown) [I-68]	0%	60%	10%	70%	70%	80%	0%	0%	10%	–	–	–	–	–	–	–	–	–	–	Growth controlling degree (%) Barnyardgrass (barnyardgrass [10]; active ingredient 125 g/ha): 95%; Growth controlling degree (%) Japanese bulrush (japanese bulrush; active ingredient 125 g/ha): 70%; Growth controlling degree (%) Japanese ribbon wapato (japanese ribbon wapato; active ingredient 125 g/ha): 50%; Growth controlling degree (%) Rice (rice (var. Nihonbare); active ingredient 125 g/ha): 10%
CC(C)C(c1cnccc1C(F)(F)F)N(C)C(=O)Cc1ccccc1[N+](=O)[O-] (stereo not shown) [I-39]	50%	70%	60%	80%	90%	–	10%	10%	40%	100%	95%	85%	10%	100%	100%	70%	30%	40%	50%	Growth controlling degree (%) Redroot pigweed (redroot pigweed [14]): 80%; Growth controlling degree (%) Prickly sida (prickly sida [15]): 90%; Growth controlling degree (%) Rice (rice [17]): 10%
CCOC(=O)N(C)C(c1cnccc1C(F)(F)F)c1cccc2ccccc12 (stereo not shown) [I-54]	50%	95%	50%	80%	90%	95%	30%	50%	50%	–	–	–	–	–	–	–	–	–	–	Growth controlling degree (%) Barnyardgrass (barnyardgrass [10]; active ingredient 500 g/ha): 100%; Growth controlling degree (%) Japanese bulrush (japanese bulrush; active ingredient 500 g/ha): 70%; Growth controlling degree (%) Japanese ribbon wapato (japanese ribbon wapato; active ingredient 500 g/ha): 0%; Growth controlling degree (%) Rice (rice (var. Nihonbare); active ingredient 500 g/ha): 20%
CC(C)C(c1cnccc1Cl)N(C)C(=O)Cc1cccc(F)c1F (stereo not shown) [I-72]	0%	70%	10%	60%	60%	85%	–	40%	20%	–	–	–	–	80%	70%	60%	0%	0%	0%	Growth controlling degree (%) Rice (rice [17]): 0%; Growth controlling degree (%) Barnyardgrass (barnyardgrass [10]; active ingredient 125 g/ha): 90%; Growth controlling degree (%) Japanese bulrush (japanese bulrush; active ingredient 125 g/ha): 70%; Growth controlling degree (%) Japanese ribbon wapato (japanese ribbon wapato; active ingredient 125 g/ha): 50%; Growth controlling degree (%) Rice (rice (var. Nihonbare); active ingredient 125 g/ha): 0%
CC(Oc1ccccc1)C(=O)N(C)C(c1cnccc1C(F)(F)F)C(C)C (stereo not shown) [I-119, N-methyl-N-[2-methyl-1-(4-trifluoromethylpyridin-3-yl)propyl]2-phenoxypropionamide]	60%	40%	50%	50%	70%	10%	20%	10%	60%	–	–	–	–	–	–	–	–	–	–	Growth controlling degree (%) Barnyardgrass (barnyardgrass [10]; active ingredient 500 g/ha): 98%; Growth controlling degree (%) Japanese bulrush (japanese bulrush; active ingredient 500 g/ha): 100%; Growth controlling degree (%) Rice (rice (var. Nihonbare); active ingredient 500 g/ha): 20%
CC(C)C(c1cnccc1C(F)(F)F)N(C)C(=O)Cc1ccc(Cl)c(Cl)c1 (stereo not shown) [I-28]	10%	80%	60%	80%	70%	90%	0%	0%	60%	100%	70%	10%	0%	70%	80%	70%	50%	0%	0%	Growth controlling degree (%) Redroot pigweed (redroot pigweed [14]): 70%; Growth controlling degree (%) Prickly sida (prickly sida [15]): 30%

From patent US20050239656A1, “Pyridine compounds or salts thereof and herbicides containing the same” (priority 2002, published 2005)
